Experimental data taken from ChEMBL document CHEMBL1201862, “PubChem BioAssay data set” (2004).
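Where inhibition never reached the appropriate level, the endpoint shown equals the highest concentration tested. Otherwise, values were interpolated linearly from a five-concentration, 48-hour dose response in 96-well plates. GI50: concentration for 50% inhibition of growth.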 Calls of active or inactive are those of the source. Cut-off read from the data, not from the text of the source: active = GI50 up to about 1.1 µM and inactive = higher.

Columns and labels:
Assay in all cases: NCI-60 cell line screen, 48 h
786-0 = tested on: 786-0
BT-549 = tested on: BT-549
DU-145 = tested on: DU-145
MDA-MB-231 = tested on: MDA-MB-231
MDA-MB-435 = tested on: MDA-MB-435
MDA-N = tested on: MDA-N
RXF 631 = tested on: RXF 631
Hs-578T = tested on: Hs-578T

**Q.** With `O=C(O)/C=C/c1ccncc1` as the compound, how does the GI50 (786-0) read?
**A.** The GI50 was > 100 µM (inactive).

**Q.** Which GI50 (786-0) does the source give for `Cc1ccc(C(=O)Nc2ccc(S(=O)(=O)O)c3cc(S(=O)(=O)O)cc(S(=O)(=O)O)c23)cc1NC(=S)Nc1cc(C(=O)Nc2ccc(S(=O)(=O)O)c3cc(S(=O)(=O)O)cc(S(=O)(=O)O)c23)ccc1C` here?
**A.** Its GI50 is > 75 µM (inactive).

**Q.** And the GI50 (BT-549)?
**A.** Its GI50 is > 75 µM (inactive).

**Q.** What about the GI50 (DU-145) of the same compound?
**A.** The GI50 was > 75 µM (inactive).

**Q.** What about the GI50 (MDA-MB-231) of the same compound?
**A.** Its GI50 is > 75 µM (inactive).

**Q.** What about the GI50 (MDA-MB-435) of the same compound?
**A.** Its GI50 is > 75 µM (inactive).

**Q.** And the GI50 (MDA-N)?
**A.** Its GI50 is > 75 µM (inactive).

**Q.** How did the GI50 (RXF 631) turn out when `Cc1cc(O)c2c(c1)C(=O)c1cc(O)cc(O)c1C2=O` [EMODIN] was run?
**A.** Its GI50 is 39.3 µM (inactive).

**Q.** How did the GI50 (Hs-578T) turn out when `O=C1OC(c2ccccc2)=N/C1=C/c1cccs1` was run?
**A.** Its GI50 is 87.1 µM (inactive).

**Q.** And the GI50 (MDA-MB-435)?
**A.** The GI50 was > 100 µM (inactive).
